“And” between values parts separate entries of the source, which are not always exact repeats. Equal values may be shown once. Read-outs that look alike come from different tables or passages of the source.
Key:
[1] = cited from earlier work
[2] = cited from earlier work; remark: listed apart in the source
[3] = cited from earlier work; remark: listed apart in the source
[4] = PFAA concentration in morning urine of occupational workers (HPLC-ESI/MS/MS); type: in vivo, human; settings: for Urine PFOS concentration: individual workers
Experimental: (§1) The selected fluorochemical plant (Henxin Chemical Plant) in this study is one of the largest producers of PFOS-related chemicals in China and is located in Yingcheng, Hubei province. Perfluoroalkyl sulfonic acids (PFSAs) and perfluorotertiary amines are synthesized through an electro-chemical fluorination (ECF) process. We collected paired serum and urine samples from the occupational workers in the plant for five consecutive years, and the sampling activities were carried out in Nov. 2008, Nov. 2009, Nov. 2010, Dec. 2011, and Dec 2012, respectively. The Medical Research Ethics Committee, School of Medicine, Jianghan University, approved the ethics of this study, and all methods were performed in accordance with the relevant guidelines and regulations, moreover, all volunteers gave written informed consent. Demographic information of the donors, including gender, age, length of service, and work assignment, was collected with a questionnaire (Table S1). The sampled population included a total of 302 occupational workers, of which there were 89 female and 213 male participants. In total, 302 serum and 274 urine samples were collected.
(§2) The participants were told not to eat breakfast before the sampling, and morning urine samples and blood samples were collected. Serum was separated from the blood by centrifugation at 1100 × g at 4 °C for 10 min and then placed on ice. Serum samples were then transferred to our laboratory on the same day and stored in polypropylene containers at −20 °C until analysis.
(§3) All pre-treatment methods and instrument analysis of PFAAs in serum and urine samples are based on previous studies with minor modifications (see Supplementary Information)[3][31]. Based on the PFAA profiles in environmental matrices around the same plant in our previous study, only 3 main PFAAs, PFHxS, PFOA, and PFOS, were analyzed in the obtained serum and urine samples. Instrumental analysis of the PFAAs was performed by a HPLC-ESI/MS/MS system (HPLC: Waters 2695, MS: Waters Quattro Premier XE). The limits of detection (LODs) of PFHxS, PFOA, and PFOS were 0.020, 0.063, and 0.018 ng mL^−1 for serum samples and 0.008, 0.025, and 0.007 ng mL^−1 for urine samples, respectively. A procedural blank was performed for every batch of seven samples, and all of the blank levels were below the LODs. […] Details of quality assurance and quality control of the chemical analysis can be found in the Supplementary Information.
Urine samples were pretreated by solid phase extraction. Briefly, 1 mL of urine spiked with 5 ng of internal standard was added to a 15 - mL PP tube and diluted with 13 mL water. The solid phase extraction procedure was then performed following the previously described serum extraction procedure.

[5] = set-up: method as in PMID 23980546, PMID 12499116, PMID 20236705; settings: set value; cited from earlier work
[6] = PFAA concentration in serum of occupational workers (HPLC-ESI/MS/MS); type: in vivo, human; set-up: Serum PFAA level: unit: ng/mL
Experimental: as §1, §2, §3

[7] = retired fluorochemical production workers
[8] = Fabric finishing agent department, N 8

Structure (SMILES): O=S(=O)(O)C(F)(F)C(F)(F)C(F)(F)C(F)(F)C(F)(F)C(F)(F)C(F)(F)C(F)(F)F [PFOS, perfluorooctanesulfonate]
- Serum concentration in 85 percent of the sampled Chinese population ([1]; general population): less than 100 ng mL^−1
- Serum concentration, median ([1]; workers in another fluorochemical plant in China): 33.5 ng/mL
- Serum concentration, geometric mean ([1]; workers of the 3 M Company): 910 ng/mL
- Half-life, population-based pharmacokinetic model ([2]; US NHANES cross-sectional data 1999 to 2012): 3.7 years
- Shortest half-life in humans reported in previous studies [2]: 3.7 years
- Half-life based on serum concentrations ([2]; humans): more than 5 years
- Half-life by daily clearance (GM) ([2]; males and older females): 18 years
- half-life ([2]; males and older females): exceeded 10 years
- Half-life (GM) [2, 7]: 4.8 years
- Half-life, 95% CI [2, 7]: 3.9–6.9 years
- half-life [2, 7]: approximately 5 years
- Half-life by daily clearance (GM) ([2]; young females): 5.1 years
- Clrenal values obtained from different sources, range [3]: 0.01 to 0.1 mL/day/kg
- Clrenal, median ([3]; fishery employees from Tangxun Lake): 0.010 mL/day/kg
- Urine concentration, mean ([4]; All workers, N 274): 4.4 ng/mL
- Urine concentration, median ([4]; All workers, N 274): 1.2 ng/mL
- Urine concentration, mean ([4]; Electrolytic department, N 67): 1.8 ng/mL
- Urine concentration, median ([4]; Electrolytic department, N 67): 0.93 ng/mL
- Urine concentration, mean [4, 8]: 0.39 ng/mL
- Urine concentration, median [4, 8]: LOD
- Urine concentration, mean ([4]; Management office, N 76): 1.6 ng/mL
- Urine concentration, median ([4]; Management office, N 76): 0.49 ng/mL
- Urine concentration, mean ([4]; Research building, N 25): 1.4 ng/mL
- Urine concentration, median ([4]; Research building, N 25): 1.1 ng/mL
- Urine concentration, mean ([4]; Sulfonation department, N 98): 8.8 ng/mL
- Urine concentration, median ([4]; Sulfonation department, N 98): 3.0 ng/mL
- Urine PFOS concentration ([4]; sampling year 2008): 0.918 ng/mL and 7.8 ng/mL and 7.66 ng/mL and 0.697 ng/mL and 0.425 ng/mL and 17.2 ng/mL and 3.94 ng/mL and 2.12 ng/mL and 0.736 ng/mL and 0.943 ng/mL and 2.18 ng/mL and 0.818 ng/mL and 0.217 ng/mL and 0.819 ng/mL and 0.291 ng/mL and 4.7 ng/mL and 7.69 ng/mL and 3.07 ng/mL and 0.465 ng/mL and 22.5 ng/mL and 3.09 ng/mL
- Urine PFOS concentration ([4]; sampling year 2009): 0.361 ng/mL and 7.85 ng/mL and 2.17 ng/mL and 1.4 ng/mL and 0.831 ng/mL and 1.51 ng/mL and 0.198 ng/mL and 2.73 ng/mL and 0.47 ng/mL and 0.288 ng/mL and 0.078 ng/mL and 0.206 ng/mL and 0.094 ng/mL and 0.171 ng/mL and 0.84 ng/mL and 1.33 ng/mL and 0.14 ng/mL and 1.86 ng/mL and 2.58 ng/mL and 1.8 ng/mL
- Urine PFOS concentration ([4]; sampling year 2010): 1.14 ng/mL and 0.258 ng/mL and 0.177 ng/mL and 64.2 ng/mL and 0.884 ng/mL and 0.714 ng/mL and 0.912 ng/mL and 0.855 ng/mL and 2.44 ng/mL and 0.39 ng/mL and 3.98 ng/mL and 0.314 ng/mL and 0.409 ng/mL and 1.98 ng/mL and 0.139 ng/mL and 14 ng/mL and 14.2 ng/mL and 7.14 ng/mL and 3.93 ng/mL
- Urine PFOS concentration ([4]; sampling year 2011): 0.14 ng/mL and 0.17 ng/mL and 0.47 ng/mL and 49.90 ng/mL and 2.18 ng/mL and 0.43 ng/mL and 0.54 ng/mL and 5.08 ng/mL and 0.52 ng/mL and 0.29 ng/mL and 0.75 ng/mL and 0.51 ng/mL and 0.04 ng/mL and 0.70 ng/mL and 0.74 ng/mL and 1.78 ng/mL and 14.70 ng/mL and 7.74 ng/mL and 4.91 ng/mL and 2.24 ng/mL
- Urine PFOS concentration ([4]; sampling year 2012): 0.7 ng/mL and 26.46 ng/mL and 0.46 ng/mL and 1.62 ng/mL and 0.22 ng/mL and 0.44 ng/mL and 0.58 ng/mL and 0.18 ng/mL and 0.5 ng/mL and 0.78 ng/mL and 0.1 ng/mL and 1.64 ng/mL and 0.06 ng/mL and 0.26 ng/mL and 0.12 ng/mL and 0.42 ng/mL and 7.26 ng/mL and 7.8 ng/mL and 9.72 ng/mL and 5.64 ng/mL
- Vd (volume of distribution in the human body) [5]: 0.23 L/kg
- Serum concentration, GM ([6]; 46 workers sampled at least three times, 2008): 1751 ng/mL
- Serum concentration, GM ([6]; 46 workers sampled at least three times, 2009): 1095 ng/mL
- Serum concentration, GM ([6]; 46 workers sampled at least three times, 2012): 2580 ng/mL
- Serum concentration, mean ([6]; All workers, N 302): 5624 ng/mL
- Serum concentration, range ([6]; All workers, N 302): 50.3 to 118000 ng/mL
- Serum PFAA level ([6]; Electrolytic Department, length of service 1-3 years): 1827
- Serum PFAA level ([6]; Electrolytic Department, length of service < 1 year): 772
- Serum PFAA level ([6]; Electrolytic Department, length of service >3 years): 1393
- Serum concentration, mean ([6]; Electrolytic department, N 74): 1909 ng/mL
- Serum concentration, median ([6]; Electrolytic department, N 74): 1541 ng/mL
- Serum concentration, range ([6]; Electrolytic department, N 74): 234 to 8501 ng/mL
- Serum concentration, mean [6, 8]: 514 ng/mL
- Serum concentration, median [6, 8]: 267 ng/mL
- Serum concentration, range [6, 8]: 103 to 1890 ng/mL
- Serum PFAA level ([6]; Management Office, length of service 1-3 years): 641
- Serum PFAA level ([6]; Management Office, length of service < 1 year): 140
- Serum PFAA level ([6]; Management Office, length of service >3 years): 728
- Serum concentration, mean ([6]; Management office, N 92): 1144 ng/mL
- Serum concentration, median ([6]; Management office, N 92): 616 ng/mL
- Serum concentration, range ([6]; Management office, N 92): 50.3 to 7910 ng/mL
- Serum PFAA level ([6]; Research Building, length of service 1-3 years): 888
- Serum PFAA level ([6]; Research Building, length of service < 1 year): 318
- Serum PFAA level ([6]; Research Building, length of service >3 years): 890
- Serum concentration, mean ([6]; Research building, N 27): 1195 ng/mL
- Serum concentration, median ([6]; Research building, N 27): 736 ng/mL
- Serum concentration, range ([6]; Research building, N 27): 101 to 7450 ng/mL
- Serum PFAA level ([6]; Sulfonation Department, length of service 1-3 years): 5463
- Serum PFAA level ([6]; Sulfonation Department, length of service < 1 year): 5174
- Serum PFAA level ([6]; Sulfonation Department, length of service >3 years): 7756
- Serum concentration, mean ([6]; Sulfonation department, N 101): 14002 ng/mL
- Serum concentration, median ([6]; Sulfonation department, N 101): 5544 ng/mL
- Serum concentration, range ([6]; Sulfonation department, N 101): 416 to 118000 ng/mL
- Serum concentration, geometric mean ([6]; all occupational workers): 1677 ng/mL
- Average serum concentration (Average ± SD) ([6]; female workers, n 89): 2,221 ± 4,791 ng mL^−1
- Average serum concentration (Average ± SD) ([6]; male workers, n 213): 7,040 ± 15382 ng mL^−1
- Serum concentration below which 85 percent of the population lies ([6]; present study, workers): 6775 ng/mL
- Serum PFOS concentration ([6]; serum, sampling year 2008, individual occupational workers): 853 ng/mL and 83 ng/mL and 463 ng/mL and 635 ng/mL and 357 ng/mL and 25000 ng/mL and 4570 ng/mL and 4540 ng/mL and 460 ng/mL and 3220 ng/mL and 4170 ng/mL and 3160 ng/mL and 2690 ng/mL and 650 ng/mL and 620 ng/mL and 250 ng/mL and 3580 ng/mL and 3030 ng/mL and 1770 ng/mL and 5220 ng/mL and 1970 ng/mL and 3940 ng/mL and 2600 ng/mL and 8430 ng/mL and 7450 ng/mL and 3800 ng/mL and 1450 ng/mL and 1280 ng/mL
- Serum concentration, GM ([6]; workers with service length 1–3 years): 1861 ng/mL
- Serum concentration, GM ([6]; workers with service length less than 1 year): 782 ng/mL
- Serum concentration, GM ([6]; workers with service length more than 3 years): 1876 ng/mL

Source: PMC5131319, “Occurrence, temporal trends, and half-lives of perfluoroalkyl acids (PFAAs) in occupational workers in China” (Scientific Reports, 2016)
